Holding throughout (assay): growth of human tumour cells (NCI), 48 h
Test [1] relates to SK-MEL-5 melanoma.
Test [2] has as its system MOLT-4 leukemia.
Test [3] deals with HCC-2998 colon.
Test [4] deals with M14 melanoma.
Test [5] has as its system SK-MEL-28 melanoma.
Test [6] concerns SK-OV-3 ovarian.
Test [7] relates to HOP-92 NSCLC.
For test [8], the system named is HOP-62 NSCLC.
Test [9] has as its system OVCAR-4 ovarian.
The test system of test [10] is ACHN renal.

We go through 17 molecules from PubChem BioAssay (NCI).

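How tested: cells in 96-well plates exposed to compound for 48 hours at five concentrations. GI50 = concentration required for 50% inhibition of growth. Definition used: TGI = concentration required for complete inhibition of growth.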

`O=C(/C(=C/c1ccccc1)c1ccccc1)N1c2ccccc2CC1c1c[nH]c2ccccc12` (stereo unspecified): the TGI is more than 100 µM in [1]; 49.7 µM in [2]; more than 100 µM in [3]; more than 100 µM in test [4]; more than 100 µM in test [5]; more than 100 µM in [6]. For the same molecule, the TGI in [7], in [8], in test [9] and in test [10] was more than 100 µM in each case.
With `CCCCOc1ccc(/C=N/Nc2cc(C)nc3ccc(Cl)cc23)cc1`, the GI50 is 1.61 µM in test [1]; 1.7 µM in test [2]; 1.91 µM in test [3]; 1.89 µM in test [4]; 1.66 µM in [5]; 1.8 µM in test [6]. Also, the GI50 is 1.43 µM in [7], 1.62 µM in test [8], 1.56 µM in test [9] and 1.73 µM in [10]. Moreover, the TGI amounted to 2.97 µM in test [1]; 3.61 µM in test [2]; 3.38 µM in test [3]; 3.91 µM in [4]; 3.08 µM in [5]; 3.27 µM in test [6]. For the same molecule, the TGI was 2.99 µM in test [7], 3.28 µM in test [8], 3 µM in test [9] and 3.1 µM in test [10].
Take `O=S(=O)(O)ONC1=NCCN1`: the GI50 was more than 100 µM in [1]; 49.7 µM in test [2]; more than 100 µM in test [3]; more than 100 µM in [4]; more than 100 µM in [5]; more than 100 µM in test [6]. The GI50 in test [7], in test [8], in [9] and in test [10] was more than 100 µM throughout. The TGI in [1], in test [2], in test [3], in test [4], in test [5] and in test [6] was more than 100 µM throughout. Moreover, the TGI in test [7], in test [8], in test [9] and in test [10] was more than 100 µM throughout.
`Cn1ncc(-c2ccc3c(=O)[nH]nc(CN)c3c2)c1-c1c(F)cc2ccccc2c1C#N`: the GI50 is 11 µM in [1]; 2.29 µM in test [2]; 8.63 µM in [3]; 6.97 µM in test [4]; 10.6 µM in [5]; 13.6 µM in test [6]. The GI50 is 4.06 µM in [7], 6.31 µM in [8], 7.67 µM in test [9] and 4.07 µM in test [10]. For the same molecule, the TGI in test [1] worked out at 22.9 µM; in test [2], 12.6 µM; in [3], 20.8 µM; in [4] it was 21.1 µM; in test [5], 23 µM; in test [6] it was 26.8 µM. For the same molecule, the TGI in [7] turned out to be 18.1 µM; in [8] it was 20.3 µM; in [9] it was 25.2 µM; in [10], 16.5 µM.
Consider `Oc1c(CN2CCOCC2)cc(COCc2ccccc2)c2cccnc12`, for which the GI50 in test [1] is 2.03 µM; in test [2], 2.57 µM; in [3], 3.28 µM; in [4], 1.59 µM; in [5], 2.79 µM; in [6], 3 µM. Also, the GI50 in [7] was 41.6 µM; in test [8], 1.48 µM; in test [9] it was 1.97 µM; in test [10] it was 0.571 µM. The TGI in test [1] was 5.43 µM; in [2] it was 17.7 µM; in test [3] it was more than 100 µM; in test [4], 7.84 µM; in test [5], more than 100 µM; in [6], 22.2 µM. In addition, the TGI in test [7], in test [8], in [9] and in test [10] was more than 100 µM throughout.
As to `COc1cccc(C2=C(c3cn(C)c4cccc(OC)c34)C(=O)NC2=O)c1`, the GI50 in test [1] is 7.36 µM; in [2], 12.5 µM; in test [3] it was more than 25 µM; in test [4] it was 7.98 µM; in test [5] it was more than 19.1 µM; in [6], 11.6 µM. The GI50 in [7] was 8.89 µM; in test [8], 18.8 µM; in test [9], more than 21.3 µM; in [10], 15.5 µM. Also, the TGI in test [1], in test [2], in test [3], in test [4], in [5] and in [6] was more than 25 µM in each case. Further, the TGI in test [7], in [8], in test [9] and in [10] was more than 25 µM throughout.
Regarding `C#Cc1cc2c(N)c(C(=O)c3cc(OC)c(OC)c(OC)c3)[nH]c2cc1OC`, the GI50 is 0.434 µM in test [1]; 0.903 µM in [2]; 42.5 µM in [3]; 0.521 µM in test [4]; 19.3 µM in test [5]; 0.517 µM in test [6]. Besides, the GI50 in test [7] is 0.334 µM; in [8], 0.58 µM; in test [9] it was 0.987 µM; in test [10] it was 0.574 µM. Also, the TGI in [1] was 12.9 µM; in test [2] it was 95.2 µM; in test [3], more than 100 µM; in [4], more than 100 µM; in [5] it was more than 100 µM; in test [6], more than 100 µM. Besides, the TGI in test [7] was 37.7 µM; in test [8] it was more than 100 µM; in test [9] it was more than 100 µM; in test [10], more than 100 µM.
For `O=[N+]([O-])c1cc(F)c2cccnc2c1O`, the GI50 in [1] is 16.5 µM; in test [2] it was 2.43 µM; in [3], 10.6 µM; in test [4], 7.56 µM; in test [5], 21.2 µM; in test [6], 26.3 µM. Further, the GI50 in test [7] is 2.84 µM; in test [8], 13.6 µM; in test [9], 6.63 µM; in [10], 6.06 µM. In addition, the TGI is 73.7 µM in test [1]; 11 µM in [2]; more than 100 µM in test [3]; 40.9 µM in test [4]; more than 100 µM in test [5]; more than 100 µM in test [6]. In addition, the TGI was 9.01 µM in test [7], more than 100 µM in [8], 65.5 µM in [9] and 79.7 µM in test [10].
Turning to `NS(=O)(=O)c1ccc(NC(=O)COC(=O)c2cccc3c(=O)c4ccccc4[nH]c23)cc1`, the TGI was more than 100 µM in test [1]; more than 47.2 µM in [2]; more than 100 µM in [3]; more than 100 µM in test [4]; more than 100 µM in test [5]; 43.3 µM in [6]. Also, the TGI in [7] is 38.6 µM; in test [8] it was 40.2 µM; in test [9], more than 100 µM; in test [10] it was 71.9 µM.
With `O=c1c2c3c(sc2n2c(-c4ccc(Br)cc4)nnc2n1Cc1ccccc1)CCCC3`, the GI50 is 3.8 µM in test [1]; 3.84 µM in [2]; 3.25 µM in test [3]; 6.19 µM in [5]; 5.88 µM in test [6]; 3.41 µM in [7]. Further, the values for the GI50 in test [8], in test [9] and in test [10] were 3.97 µM, 6.03 µM and 8.74 µM, respectively. Moreover, the TGI in [1] amounted to 14.3 µM; in test [2], 91.6 µM; in test [3] it was 13.4 µM; in [5], 19.9 µM; in [6], 18.8 µM; in [7] it was 16.1 µM. In addition, the TGI is 17.6 µM in test [8], 22.4 µM in [9] and 21.1 µM in test [10].
With `Cc1ccc2c(c1)C(=O)c1c-2n(CCCN=[N+]=[N-])c(=O)c2cc([N+](=O)[O-])ccc12`, the GI50 in test [1] is 97.6 µM; in [2], 17.8 µM; in [3], more than 100 µM; in [4] it was more than 100 µM; in [5], more than 100 µM; in test [7], 30.2 µM. Besides, the GI50 was 71.7 µM in [8], 14 µM in test [9] and 30.8 µM in [10]. The TGI was more than 100 µM in test [1]; 70.4 µM in [2]; more than 100 µM in [3]; more than 100 µM in [4]; more than 100 µM in [5]; more than 100 µM in test [7]. Further, the TGI in test [8] is more than 100 µM; in test [9] it was 74.2 µM; in [10], more than 100 µM.
`COc1ccc(NC(=O)/C=C(C)/C=C/C=C(C)\C=C\C2=C(C)CCCC2(C)C)cc1`: the GI50 in [1] is 40.9 µM; in test [2] it was 55.1 µM; in test [3], more than 100 µM; in test [4] it was more than 100 µM; in test [5] it was more than 100 µM; in test [6], more than 100 µM. In addition, the values for the GI50 in test [8], in test [9] and in [10] were more than 100 µM, 34.8 µM and more than 100 µM, respectively. The TGI in [1], in [2], in test [3], in test [4], in test [5] and in test [6] was more than 100 µM in each case. Moreover, the TGI in test [7] is 30.4 µM; in [8], more than 100 µM; in [9], more than 100 µM; in [10], more than 100 µM.
In the case of `COc1ccc2nc3cccc(C(=O)NCCN(C)C)c3nc2c1`, the TGI in test [2] is 1.19 µM; in test [3], 6.16 µM; in test [5], 4.88 µM; in [6] it was more than 28 µM; in test [7] it was more than 100 µM; in test [8], 3.76 µM. Also, the TGI is 8.72 µM in test [9] and 6.78 µM in [10].
Consider `N#Cc1cccc(OCc2ccccc2COc2cccc(C#N)c2)c1`, for which the GI50 is 43.4 µM in [1]; more than 100 µM in test [2]; more than 100 µM in test [3]; 43.9 µM in [4]; more than 100 µM in test [5]; 35.7 µM in test [6]. Further, the GI50 is 2.36 µM in [7], 54.8 µM in [9] and 27.2 µM in test [10]. The TGI in test [1], in [2], in test [3], in test [4], in test [5] and in test [6] was more than 100 µM in each case. Further, the TGI in test [7] was 15.4 µM; in test [9], more than 100 µM; in [10], 86.3 µM.
In the case of `Nc1ccc(C(=O)N/C(=C\c2cccc([N+](=O)[O-])c2)c2nc3c4c(ccc3[nH]2)C(=O)c2ccccc2C4=O)cc1`, the TGI in [1], in test [2], in [3], in test [4], in test [5] and in [6] was more than 100 µM each time. For the same molecule, the figures for the TGI in test [7], in [8] and in [9] were 93.4 µM, more than 100 µM and 43.4 µM, respectively.
`CN1CCN(CCOc2ccc(-c3cnc4c(-c5ccc(F)cc5)cnn4c3)cc2)CC1`: the GI50 in test [1] was 1.64 µM; in test [2], 1.56 µM; in test [3], 1.77 µM; in test [4], 1.96 µM; in test [5], 1.87 µM; in test [7], 1.43 µM. Also, the GI50 in test [8] is 1.85 µM; in test [9], 1.43 µM; in [10], 1.42 µM. Besides, the TGI in test [1] stood at 3.04 µM; in test [2], 3.59 µM; in test [3], 3.45 µM; in [4], 3.7 µM; in test [5] it was 3.62 µM; in test [7] it was 3.3 µM. For the same molecule, the TGI in test [8] came to 3.81 µM; in test [9], 3.61 µM; in test [10], 2.73 µM.
Consider `Cc1cc(S(=O)(=O)Nc2nc3cc(Cl)ccc3o2)c(SCc2ccccc2)cc1Cl`, for which the GI50 in test [1] was 17.1 µM; in test [2], 37.8 µM; in test [3], 18.9 µM; in test [4] it was 22.1 µM; in test [5] it was 27.3 µM; in [7] it was 18.7 µM. Also, the GI50 is 21.9 µM in test [8], 25.6 µM in test [9] and 18.5 µM in [10]. Moreover, the TGI in [1] was 32 µM; in test [2], more than 100 µM; in test [3] it was 37.4 µM; in test [4], 43.9 µM; in [5] it was 75.1 µM; in [7], 39.1 µM. Besides, the TGI is 40 µM in test [8], 74.7 µM in test [9] and 34.9 µM in test [10].
